4 compounds from patent US20050119283A1, “Treatment of circadian rhythm disorders with NPY Y5 receptor antagonist” (Pfizer Inc, priority 2003, published 2005) can be followed below.

Assay [1] concerns hamster wheel running activity. The assay can be described thus: Light-induced phase advances of hamster wheel running activity (in vivo). Particulars: for Phase shift: mean ± S.E.M. The source says: The in vivo experimental design included recording a behavioral overt rhythm such as running-wheel activity and exposing the animals to an amount of light that is known to produce a phase advance in this pattern of activity. The term “running-wheel activity”, as used herein, is defined as physical activity measured as revolutions of a wheel permanently positioned in the animals' cages and rotated as the animals run in them. The onset of such behavior is a well regarded marker of timing in circadian rhythms. Application of NPY through a cannula aimed directly into the SCN blocks the ability of light to produce a phase advance; NPY Y5 antagonists of formula IIa block these effects of NPY. Furthermore, when given in the absence of NPY, NPY Y5 antagonists of formula IIa enhance the ability of light to produce phase advances.
Surgery. For in vivo treatment, hamsters (80-100 g) were deeply anesthetized with nembutal (80 mg/kg, i.p.), administered an analgesic (buprenorphine, 0.05 mg/kg, s.c.) and mounted in a stereotaxic instrument in order to rigidly fix the skull. They were surgically implanted with a 25 gauge stainless steel guide cannula aimed at the SCN. After a week of recovery under LD 14:10 (14 hours of light, 10 hours of dark), animals were individually transferred to cages (48×27×20 cm) equipped with wheels. Wheel running activity was recorded with ClockLab hardware and software (Actimetrics, Evanston, Ill.).
Drugs and routes of administration. Animals were briefly anesthetized in order to minimize the stress induced by restraint during cannula injections with a mixture of oxygen and isoflurane administered by means of a gas anesthesia machine (2.5% isoflurane to induce anesthesia, 1.5% to maintain anesthesia through a nose-mask). NPY (0.2 μL, 234 μM) was dissolved in ACSF and administered through a cannula with a 1 μL Hamilton syringe connected with polyethylene tubing to a 13.1 mm stainless steel injector cannula (30 gauge). NPY Y5 receptor antagonist (0.6 ml, 10 mg/kg) was dissolved in 32% 2-hydroxypropyl-B-cyclodextrin, and injected s.c. 30 minutes before NPY and/or light stimulation. Light pulses (5 min, 150 lux) were delivered individually by placing animals under two white fluorescent tubes (Phillips, model F30T12); the timing of the light pulses was selected to be in the animals' dark period, 3.5 hours before lights would normally come on.
Animals were allowed at least 10 days under LD (14 hours of light, 10 hours of dark) in order to establish a stable rhythm, and then housed under constant dim red light (DRL) provided by a safelight lamp (Coastar, Inc. <1 lux). Two sets of experiments comprising five treatments were delivered in a counterbalanced design: NPY alone, NPY+light; light alone, light+NPY Y5 antagonist, NPY+NPY Y5 antagonist+light. After two treatments (only one of them involving light stimulation), animals were resynchronized to the previous LD cycle for 7-10 days, and then exposed again to dim red light for the second set of treatments.
Data analysis. For in vivo experiments, data were automatically collected and analyzed with Clocklab software bundle (ActiMetrics Software, Evanston, Ill.). Two investigators blind to the treatment analyzed phase advance magnitudes. Statistical analyses were performed by means of ANOVA followed by Student-Newman-Keul's test.
Phase advances (h) were calculated as the difference in the onset of running behavior in animals kept in dim red light relative to those exposed to combination of light and/or drug treatments. Means±S.E.M. for N=7-12. • a. Light alone experiment in which the animals are exposed to light 3 hours before the scheduled beginning of the animals' period of normal light. There is a resulting phase advance of 1.33 hours. • b. Formula IIa+light experiment in which the animals are pretreated with NPY Y5 antagonist of formula IIa and then exposed to light 3 hours before the scheduled beginning of the animals' period of normal light. […]

For assay [2], the system named is neuronal firing in hamster SCN slices. In words: NMDA-induced phase advances of neuronal firing in hamster SCN slices maintained in vitro. The class given is cell-based. Particulars: for Phase shift: mean ± S.E.M.; for reversal of the effect of NPY on NMDA-induced phase advances, % of the NMDA alone experiment: antagonist 10 μM with NMDA 100 μM + NPY 2 ng/ml, in vitro. The procedure: Brain slices containing the SCN were taken on a nominally “preparatory day”. During the subsequent night, at 3-3.5 hours before the scheduled onset of light, drugs were administered to the bath. Neuronal recordings were made beginning early the next day, nominally the “experimental day”, and continued until the peak firing rate could be established. A shift in this peak to an earlier point in time is referred to as a “phase advance”.
Phase advances were measured in vitro by sampling spontaneous activity from neurons in a brain slice preparation of the suprachiasmatic nucleus, herein abbreviated SCN, that is known to contain the circadian clock. The term “brain slice preparation”, as used herein, is defined as a cut section of brain that is placed in a plastic chamber and kept fully functioning by providing it with ACSF (artificial cerebrospinal fluid) that has been warmed and infused with oxygen. Recordings of the spontaneous activity of neurons in the SCN brain slice preparation follow a 24-hour pattern of activity that marks the circadian rhythm. Following application of N-methyl-D-aspartate (NMDA), a compound that mediates the phase advances elicited by light in vivo, neurons in the SCN shift their pattern of firing in vitro to reflect a phase advance. Application of NPY blocks the phase advances elicited by NMDA; NPY Y5 antagonists of formula Ia and IIa block these effects of NPY.
Animals and tissue preparation. Male golden hamsters (LVG, Charles River, 40-60 days old) were housed under a light:dark schedule of 14 hours of constant light and 10 hours of constant dark, with food and water available ad libitum. Hamsters were administered an overdose of halothane anesthesia and decapitated during the subjective day. Hypothalamic slices (500 μm) containing the suprachiasmatic nucleus (SCN) were placed in a gas-fluid interface slice chamber (Medical Systems BSC with Haas top), continuously bathed (1 ml/min) in artificial cerebrospinal fluid (ACSF) containing 125.2 mM NaCl, 3.8 mM KCl, 1.2 mM KH2PO4, 1.8 mM CaCl2, 1 mM MgSO4, 24.8 mM NaHCO3, 10 mM glucose. ACSF (pH 7.4) was supplemented with an antibiotic (gentamicin, 50 mg/l) and a fungicide (amphotericin, 2 mg/l) and maintained at 34.5° C. Warm, humidified 95% oxygen:5% carbon dioxide was continuously provided to the slice preparation.
Electrophysiological studies. Extracellular single unit activity of SCN cells was detected with glass micropipette electrodes filled with ACSF, advanced through the slice using a hydraulic microdrive. The signal was further amplified and filtered, and was continuously monitored by an oscilloscope and audio monitor. Firing rate was analyzed using data acquisition software and a customized program for calculation of descriptive statistics. The term “firing rate”, as used herein, is defined as the rate at which the neurons produce an action potential during the period of recording and is indicative of their level of functioning. Firing rates in the range of 1 to 10 Hz are typical for SCN neurons. A number of experiments in each condition were recorded “blind” where the person recording data had no knowledge of the treatment. One slice was recorded from each animal. A total number of 42 slices was recorded.
Data analysis. Data were initially grouped into 1 h bins and an analysis of variance test was used to determine if any bins differed from the others. If the analysis of variance test indicated significant differences, data were smoothed using 1 h running means with a 15-minute lag. The time of the middle of the 1 h bin with the highest mean firing rate after processing by this smoother was taken as the time of peak firing rate for that slice. Phase advances of individual slices were measured relative to the average time of peak firing of control slices. Significant differences between groups (p<0.05) were determined by ANOVA followed by Bonferroni method (for all vs control comparisons). Means are reported±standard error. […]

[3] abbreviates: Formula IIa 10 mg/kg s.c. + NPY via cannula + light.
[4] abbreviates: substance + light pulse, Formula IIa 10 mg/kg s.c. 30 minutes prior to light, NPY 0.2 μL via cannula.
Where [5] appears, read: substance alone, no light, Formula IIa 10 mg/kg s.c., NPY 0.2 μL via cannula to SCN, N=7-12.
[6] abbreviates: NMDA 100 μM + NPY 2 ng/ml + antagonist 10 μM, 60 minute bath application.
[7] abbreviates: substance alone, bath application 3.5 hours before scheduled light, NPY 2 ng/ml, NMDA 100 μM, antagonist 10 μM 60 min, N=2-6.

Several values for one entry are separate records, joined by “and”; a condition that tells them apart may be missing. Equal entries are not always repeated.

With `O=C1OC2(CCN(c3nc4cc(C(F)(F)F)ccc4[nH]3)CC2)c2ccccc21` [Formula IIa], the “enhancement of the light-induced phase advance, % of the light alone experiment” value in assay [1] (Formula IIa 10 mg/kg s.c. 30 minutes prior to light, absence of NPY) was determined as 160%. The “reversal of the effects of NPY on light-induced phase advances, % of the light alone experiment” value is “about 90%” in assay [1] (setting [3]) and 89% in assay [1] (Formula IIa 10 mg/kg s.c. + NPY via cannula + light, listed as formula IIa). Further, the “Phase shift” value in assay [1] (setting [3]) was 1.18 ± 0.27 h; in assay [1] (Formula IIa 10 mg/kg s.c. + NPY via cannula, no light) it was -0.20 ± 0.07 h; in assay [1] (setting [4]), 2.11 ± 0.16 h; in assay [1] (setting [5]), -0.12 ± 0.04 h; in assay [2] (setting [6]) it was 2.73 ± 0.16 h; in assay [2] (setting [7]) it was 0.07 ± 0.07 h. Moreover, the “effect on the phase of wheel running activity” value in assay [1] (formula IIa 10 mg/kg s.c. + NPY, no light) was “no effect”; in assay [1] (substance alone, no light), “no effect”. The “reversal of the effect of NPY on NMDA-induced phase advances, % of the NMDA alone experiment” value in assay [2] is on record as “about 95%”; in assay [2] (listed as formula IIa) it was 95%. Moreover, the “effect on the phase of neuronal firing compared to the control experiment” value (from here on “effect … compared to the control experiment”) in assay [2] (substance alone) is “no effect”.
For the compound “Neuropeptide Y [NPY, reference compound]”, the “blockade of the phase advance compared to the light alone experiment” value in assay [1] (NPY via cannula + light) is reported as “complete blockade”. Moreover, the “Phase shift” value in assay [1] (setting [4]) is -0.03 ± 0.20 h; in assay [1] (setting [5]), -0.04 ± 0.11 h; in assay [2] (NMDA 100 μM + NPY 2 ng/ml), -0.07 ± 0.09 h; in assay [2] (setting [7]) it was -0.18 ± 0.17 h. In assay [1] (substance alone, no light), the “effect on the phase of wheel running activity” value is on record as “no effect”. Also, the “blockade of the NMDA-induced phase advance by NPY” value in assay [2] (NMDA 100 μM + NPY 2 ng/ml) is given as “complete blockade”. Besides, the “effect … compared to the control experiment” value in assay [2] (substance alone) is “no effect”.
For `O=C1OC2(CCN(C(=O)Nc3ccc(C(F)(F)F)cn3)CC2)c2ccccc21` [Formula Ia], the results for the “Phase shift” value in assay [2] (setting [6]) and in assay [2] (setting [7]) were 2.03 ± 0.88 h and 0.32 ± 0.35 h, respectively. Moreover, the “reversal of the effect of NPY on NMDA-induced phase advances, % of the NMDA alone experiment” value is “about 70%” in assay [2] and 70% in assay [2] (listed as formula Ia). The “effect … compared to the control experiment” value in assay [2] (substance alone) was “no effect”.
Consider `CN[C@H](CC(=O)O)C(=O)O` [NMDA, N-methyl-D-aspartate, reference compound], for which the “Phase shift” value in assay [2] (setting [7]) was 2.89 h and 2.89 ± 0.08 h.
